Laboratory results published in publication PMC5243976 (Iranian Journal of Basic Medical Sciences, 2017).

target: acetylcholinesterase from electric eel source (AChE, E.C. 3.1.1.7, Type V-S) (Electrophorus electricus, UniProt O42275); experiment: Ellman test, anti-acetylcholinesterase activity; type: biochemical
Sequence (O42275 24-633): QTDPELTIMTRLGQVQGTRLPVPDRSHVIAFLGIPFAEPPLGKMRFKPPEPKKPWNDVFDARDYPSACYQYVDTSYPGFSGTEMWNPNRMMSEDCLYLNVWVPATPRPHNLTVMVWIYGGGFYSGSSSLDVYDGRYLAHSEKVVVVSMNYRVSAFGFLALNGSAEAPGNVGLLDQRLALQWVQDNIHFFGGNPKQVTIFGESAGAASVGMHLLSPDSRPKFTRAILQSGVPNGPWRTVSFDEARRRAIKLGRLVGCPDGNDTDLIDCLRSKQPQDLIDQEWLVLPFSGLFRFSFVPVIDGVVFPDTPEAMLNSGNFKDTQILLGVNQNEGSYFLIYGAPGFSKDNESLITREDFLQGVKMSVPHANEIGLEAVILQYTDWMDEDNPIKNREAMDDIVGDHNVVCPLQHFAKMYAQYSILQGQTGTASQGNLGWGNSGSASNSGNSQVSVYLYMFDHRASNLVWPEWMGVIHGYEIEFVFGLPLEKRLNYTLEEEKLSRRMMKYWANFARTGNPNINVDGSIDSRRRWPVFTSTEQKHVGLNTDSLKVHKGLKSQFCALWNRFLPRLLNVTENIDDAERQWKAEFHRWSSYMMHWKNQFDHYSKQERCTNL

Row | Compound | IC50 [µM]
1 | COc1ccccc1C(=O)N1CCN(CCN2C(=O)c3ccccc3C2=O)CC1 [Compound 4g, 2-(2-(4-(2-Methoxybenzoyl)piperazin-1-yl)ethyl) isoindoline-1,3-dione] | 100
2 | O=C(c1ccc(F)cc1)N1CCN(CCN2C(=O)c3ccccc3C2=O)CC1 [Compound 4f, 2-(2-(4-(4-Fluorobenzoyl)piperazin-1-yl)ethyl) isoindoline-1,3-dione] | 50.6
3 | O=C(c1cccc(F)c1)N1CCN(CCN2C(=O)c3ccccc3C2=O)CC1 [Compound 4e, 2-(2-(4-(3-Fluorobenzoyl)piperazin-1-yl)ethyl) isoindoline-1,3-dione] | 0.0071
4 | O=C(c1ccc(Cl)cc1)N1CCN(CCN2C(=O)c3ccccc3C2=O)CC1 [Compound 4c, 2-(2-(4-(4-Chlorobenzoyl)piperazin-1-yl)ethyl) isoindoline-1,3-dione] | > 1000
5 | O=C(c1ccccc1F)N1CCN(CCN2C(=O)c3ccccc3C2=O)CC1 [Compound 4d, 2-(2-(4-(2-Fluorobenzoyl)piperazin-1-yl)ethyl) isoindoline-1,3-dione] | 3.6
6 | O=C(c1ccccc1[N+](=O)[O-])N1CCN(CCN2C(=O)c3ccccc3C2=O)CC1 [Compound 4j, 2-(2-(4-(2-Nitrobenzoyl)piperazin-1-yl)ethyl) isoindoline-1,3-dione] | 141
7 | O=C(c1ccccc1Cl)N1CCN(CCN2C(=O)c3ccccc3C2=O)CC1 [Compound 4a, 2-(2-(4-(2-Chlorobenzoyl)piperazin-1-yl)ethyl) isoindoline-1,3-dione] | 333
8 | COc1ccc(C(=O)N2CCN(CCN3C(=O)c4ccccc4C3=O)CC2)cc1 [Compound 4i, 2-(2-(4-(4-Methoxybenzoyl)piperazin-1-yl)ethyl) isoindoline-1,3-dione] | 0.0203
9 | O=C(c1cccc(Cl)c1)N1CCN(CCN2C(=O)c3ccccc3C2=O)CC1 [Compound 4b, 2-(2-(4-(3-Chlorobenzoyl)piperazin-1-yl)ethyl) isoindoline-1,3-dione] | 70.2
10 | COc1cccc(C(=O)N2CCN(CCN3C(=O)c4ccccc4C3=O)CC2)c1 [Compound 4h, 2-(2-(4-(3-Methoxybenzoyl)piperazin-1-yl)ethyl) isoindoline-1,3-dione] | 1.3
